In patent US20180333461A1, “METHODS AND COMPOSITIONS FOR TREATING OR PREVENTING FLAVIVIRUS INFECTIONS” (THE UNIVERSITY OF QUEENSLAND, priority 2014, published 2018):
Entries after “also recorded” stand apart in the source; their conditions may differ.

What was measured:
[1] = tested on: bone marrow-derived macrophages (BMM); test: CSF-1R down-modulation assay on BMMs (flow cytometry); format: cell-based, mouse; conditions: 1 hour treatment
Experimental: NS1 and LPS were pre-incubated for 30 minutes with or without polymyxin B, then added to PBMC and incubated for 24 hours. The final concentration of polymyxin B was 25 μg/mL, with varying concentrations of LPS (0.1, 1, 10 ng/mL) and NS1 (5, 10, 20 and 40 μg/mL). Released IL-6 was measured by ELISA. […] NS1 and LPS were pre-incubated for 30 minutes with or without polymyxin B then added to BMMs that had been starved of CSF1 overnight. The final concentration of polymyxin B was 25 μg/mL, with LPS (10-fold dilutions from 100 ng/mL) and NS1 (2′-fold dilutions from 10 μg/mL). After 1 hour of treatment, CSF1R levels were determined by flow cytometry, and the % of cells with high levels of receptor are shown. Data are the mean±SD from three (A) or five (B) independent experiments.
FIG. 3 is a graphical representation showing that NS1 from several sources has immunostimulatory activity. (A) NS1 immuno-depletion prevents the down-modulation of surface CSF1R by S2 cell-expressed NS1. […] The final concentration of 5 μg/mL NS1 (as quantified by capture-ELISA) represents approximately 4-fold higher levels than produced in the CHO cell medium. […]
FIG. 5 is a graphical representation showing that NS1 activates cells via TLR4. […] CSF1R on wild-type C57BL/6 BMM (WT), tlr4^−/− and MyD88^−/−/trif^−/− BMMs was measured after 1 hour treatment with CSF1 (10^4 U/mL), LPS (100 ng/mL) and NS1 (10 μg/mL). […]

[2] = tested on: human PBMC; test: IL-6 secretion by human PBMC (ELISA), with or without polymyxin B pre-incubation; format: cell-based; conditions: 24 hours
Experimental: FIG. 1 is a graphical representation showing that Dengue NS1 activates human and mouse innate immune responses. (A) NS1 induces IL-6 secretion by human PBMC. Cells were treated for 24 hrs. with LPS (100 ng/mL), NS1 (40 μg/mL), or an analogous NS1 sample immune-depleted with anti-NS1 or anti-E antibody. IL-6 was measured by ELISA. Data shown is mean±SD of three donors. The inset immunoblot is of the supernatant fraction following immuno-depletion using anti-NS1 antibody or isotype-matched control antibody. […] ELAM promoter activity was monitored as in B, in response to LPS (100 ng/mL), NS1 (40 μg/mL), NS1 immuno-depleted using anti-NS1 antibody or isotype-matched control antibody (confirmed in western blot inset).
NS1 and LPS were pre-incubated for 30 minutes with or without polymyxin B, then added to PBMC and incubated for 24 hours. […] Released IL-6 was measured by ELISA. […] After 1 hour of treatment, CSF1R levels were determined by flow cytometry, and the % of cells with high levels of receptor are shown. […]
Human PBMCs from healthy donors were seeded at 1×10^6 cells per well in 12 well plates prior to incubation with NS1 or LPS. […] The level of IL-6 production was quantitated ELISA (R & D Systems) according to the protocol recommended by the manufacturer.

polymyxin B
Effect on LPS-induced loss of surface CSF1R on BMMs ([1]; polymyxin B 25 μg/mL pre-incubated with LPS 30 min): sensitive | Effect on NS1-induced loss of surface CSF1R on BMMs ([1]; polymyxin B 25 μg/mL pre-incubated with NS1 30 min): does not block | Effect on LPS-induced IL-6 in PBMC ([2]; polymyxin B 25 μg/mL pre-incubated with LPS 30 min, LPS ≤10 ng/mL): inhibited | Effect on NS1-induced IL-6 in PBMC ([2]; polymyxin B 25 μg/mL pre-incubated with NS1 (5-40 μg/mL) 30 min): does not block; also recorded: unaffected
